Reference: US5331006A, “Amino acid analogs as CCK antagonists” (Warner-Lambert Company, priority 1991, dated 1994)
Like-named read-outs stand apart in the source and are kept apart here.

Biological target: T1, CCK receptor sites (Mus musculus, UniProt P56481)
T1 construct: from tissue; host or cells: cerebral cortex membranes of male CFLP mice
T1 sequence (P56481 1-453): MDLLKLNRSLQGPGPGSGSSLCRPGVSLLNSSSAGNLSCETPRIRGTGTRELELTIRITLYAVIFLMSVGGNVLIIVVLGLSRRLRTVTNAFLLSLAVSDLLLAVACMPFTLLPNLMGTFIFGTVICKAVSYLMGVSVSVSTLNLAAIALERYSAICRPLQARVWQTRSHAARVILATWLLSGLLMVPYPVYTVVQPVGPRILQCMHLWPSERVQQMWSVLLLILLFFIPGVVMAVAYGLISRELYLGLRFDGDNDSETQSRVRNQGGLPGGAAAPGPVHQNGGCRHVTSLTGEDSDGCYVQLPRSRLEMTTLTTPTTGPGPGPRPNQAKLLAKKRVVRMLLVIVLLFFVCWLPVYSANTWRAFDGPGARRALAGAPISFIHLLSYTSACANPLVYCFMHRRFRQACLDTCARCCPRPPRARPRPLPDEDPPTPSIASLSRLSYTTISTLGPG
Assay: CCK receptor binding, displacement of tritiated pentagastrin from mouse cerebral cortex membranes
Set-up: key: IA = Inactive in respect to this binding assay
Settings: 2 nM tritiated pentagastrin, mouse cerebral cortical membranes, Ki from IC50 by Cheng-Prusoff
Description: The biological activity of compounds of the present invention was evaluated employing an initial screening test which rapidly and accurately measured the binding of the tested compound to known CCK receptor sites. […] (See Hays, et al, Neuropeptides 1:53-62, 1980; and Satuer, et al, Science 208:1155-1156, 1980.)
In this screening test the cerebral cortices taken from male CFLP mice weighing between 30 to 40 g were dissected on ice, weighed, and homogenized in 10 volumes of 50 mM Tris-HCl buffer (pH 7.4 at 0° to 4° C.). The resulting suspension was centrifuged, the supernate was discarded, and the pellet was washed by resuspension in Tris-HCl buffer followed by recentrifugation. The final pellet was resuspended in 20 volumes of […] Hepes buffer (pH 7.2 at 23° C.) containing 130 mM NaCl, […] KCl, […] MgCl2, […] EDTA, 5 mg/mL bovine albumin, and bacitracin (0.25 mg/mL).
In saturation studies, cerebral cortical membranes were incubated at 23° C. for 120 minutes in a final volume of 500 μL of Hepes incubation buffer (pH 7.2) together with 0.2-20 nM tritiated-pentagastrin (Amersham International, England).
In the displacement experiments, membranes were incubated with a single concentration (2 nM) of ligand, together with increasing concentrations of competitive test compound. In each case, the nonspecific binding was defined as that persisting in the presence of the unlabeled octapeptide CCK26-33 (10^-6 M).
Following incubation, radioactivity bound to membranes was separated from that free in solution by rapid filtration through Whatman GF/B filters and washed three times with 4 mL of ice cold Tris-HCl buffer. Filters from samples incubated with tritiated pentagastrin were placed in polyethylene vials with 4 mL of scintillation cocktail, and the radioactivity was estimated by liquid scintillation spectrometry (efficiency 47% to 52%).
The specific binding to CCK receptor sites was defined as the total bound tritiated pentagastrin minus the amount of tritiated pentagastrin bound in the presence of 10^-6 octapeptide, CCK26-33.
Saturation curves for specific tritiated pentagastrin binding to mouse cortical membranes were analyzed by the methods of Scatchard (Ann. New York Acad. Sci. 51:660-672, 1949; Hill, J. Physiol. 40:IV-VIII, 1910) to provide estimates for the maximum number of binding sites (βmax)and the equilibrium dissociation constant (Ka).
In displacement experiments, inhibition curves were analyzed by either logit-log plots or the iterative curve fitting computer program ALLFIT (DeLean, Munson, and Redbard, 1978) to provide estimates of the IC50 and nH (apparent Hill coefficient) values). IC50 values were defined as the concentration of test compound required to produce 50% inhibition of specific binding).
The inhibition constant (Ki) of the test compound was then calculated according to the Cheng-Prusoff equation: [formula] where [L] is the concentration of radiolabel and Ka is the equilibrium dissociation constant.
The Ki values for several representative compounds of the present invention are present in Table II.

## CC(Cc1c[nH]c2ncccc12)(NC(=O)OC1C2CC3CC(C2)CC1C3)C(=O)NC(CO)C(O)c1ccccc1 (stereo not shown) [drawing 66 (Diast I)]
read-out: Ki
  Ki: 580 nM

## CC(Cc1c[nH]c2ncccc12)(NC(=O)OC1C2CC3CC(C2)CC1C3)C(=O)NC(CO)C(O)c1ccccc1 (stereo not shown) [drawing 66 (Diast II)]
read-out: Ki
  Ki: 43 nM

## CC(Cc1c[nH]c2ccncc12)(NC(=O)OC1C2CC3CC(C2)CC1C3)C(=O)NC(CO)C(O)c1ccccc1 (stereo not shown) [drawing 67]
  Ki: IA

## CC(Cc1c[nH]c2ccncc12)(NC(=O)OC1C2CC3CC(C2)CC1C3)C(=O)NC(CO)C(O)c1ccccc1 (stereo not shown) [drawing 69]
read-out: Ki
  Ki: 2300 nM
